# Reference: patent US10988477B2 (Merck Patent GmbH, priority 2018, dated 2021)
# Where two headings read alike, the source gives them in different places.
# Columns and labels:
# GCN2 kinase = GCN2 kinase (Homo sapiens, UniProt Q9P2K8); test: GCN2 enzyme inhibition assay (Transcreener ADP2 fluorescence polarization); type: biochemical; conditions: 280 μM ATP
# Procedure, shortened: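 Inhibition of 4 nM GCN2 was measured with compound up to 8 μM final, ATP 280 μM and (RS)7 peptide 200 μM over a 1 h, 25 °C reaction. ADP FP readout; IC50 and Ki(app) calculated from percent inhibition.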
# [1] = molecular target: intracellular GCN2 (phosphorylation of the GCN2 substrate eIF2α) (Homo sapiens, UniProt Q9P2K8); test: GCN2 cellular inhibition assay (AlphaScreen SureFire P-eIF2α Ser51, borrelidin-treated U2OS cells); type: cell-based
# Procedure, shortened: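 First, U2OS cells are plated and left overnight at 37 °C. Next, compounds (from 40 μM final, 4-fold steps) and 10 μM borrelidin are added for 1 h, cells lysed, and phospho-Ser51 eIF2α detected by AlphaScreen bead sandwich. Inhibition is computed versus borrelidin-only wells.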
# [2] = Enzyme activity for compounds of Formula IV, Ki(app), 25° C.
# [3] = compounds of Formula IV, biomarker assay, phosphorylated eIF2α Ser51 in borrelidin-treated U2OS cells
# [4] = compounds of Formula II, 4 nM GCN2 kinase
# [5] = compounds of Formula II, biomarker assay, phosphorylated eIF2α Ser51 in borrelidin-treated U2OS cells
# GCN2 kinase, sequence (Q9P2K8 whole entry): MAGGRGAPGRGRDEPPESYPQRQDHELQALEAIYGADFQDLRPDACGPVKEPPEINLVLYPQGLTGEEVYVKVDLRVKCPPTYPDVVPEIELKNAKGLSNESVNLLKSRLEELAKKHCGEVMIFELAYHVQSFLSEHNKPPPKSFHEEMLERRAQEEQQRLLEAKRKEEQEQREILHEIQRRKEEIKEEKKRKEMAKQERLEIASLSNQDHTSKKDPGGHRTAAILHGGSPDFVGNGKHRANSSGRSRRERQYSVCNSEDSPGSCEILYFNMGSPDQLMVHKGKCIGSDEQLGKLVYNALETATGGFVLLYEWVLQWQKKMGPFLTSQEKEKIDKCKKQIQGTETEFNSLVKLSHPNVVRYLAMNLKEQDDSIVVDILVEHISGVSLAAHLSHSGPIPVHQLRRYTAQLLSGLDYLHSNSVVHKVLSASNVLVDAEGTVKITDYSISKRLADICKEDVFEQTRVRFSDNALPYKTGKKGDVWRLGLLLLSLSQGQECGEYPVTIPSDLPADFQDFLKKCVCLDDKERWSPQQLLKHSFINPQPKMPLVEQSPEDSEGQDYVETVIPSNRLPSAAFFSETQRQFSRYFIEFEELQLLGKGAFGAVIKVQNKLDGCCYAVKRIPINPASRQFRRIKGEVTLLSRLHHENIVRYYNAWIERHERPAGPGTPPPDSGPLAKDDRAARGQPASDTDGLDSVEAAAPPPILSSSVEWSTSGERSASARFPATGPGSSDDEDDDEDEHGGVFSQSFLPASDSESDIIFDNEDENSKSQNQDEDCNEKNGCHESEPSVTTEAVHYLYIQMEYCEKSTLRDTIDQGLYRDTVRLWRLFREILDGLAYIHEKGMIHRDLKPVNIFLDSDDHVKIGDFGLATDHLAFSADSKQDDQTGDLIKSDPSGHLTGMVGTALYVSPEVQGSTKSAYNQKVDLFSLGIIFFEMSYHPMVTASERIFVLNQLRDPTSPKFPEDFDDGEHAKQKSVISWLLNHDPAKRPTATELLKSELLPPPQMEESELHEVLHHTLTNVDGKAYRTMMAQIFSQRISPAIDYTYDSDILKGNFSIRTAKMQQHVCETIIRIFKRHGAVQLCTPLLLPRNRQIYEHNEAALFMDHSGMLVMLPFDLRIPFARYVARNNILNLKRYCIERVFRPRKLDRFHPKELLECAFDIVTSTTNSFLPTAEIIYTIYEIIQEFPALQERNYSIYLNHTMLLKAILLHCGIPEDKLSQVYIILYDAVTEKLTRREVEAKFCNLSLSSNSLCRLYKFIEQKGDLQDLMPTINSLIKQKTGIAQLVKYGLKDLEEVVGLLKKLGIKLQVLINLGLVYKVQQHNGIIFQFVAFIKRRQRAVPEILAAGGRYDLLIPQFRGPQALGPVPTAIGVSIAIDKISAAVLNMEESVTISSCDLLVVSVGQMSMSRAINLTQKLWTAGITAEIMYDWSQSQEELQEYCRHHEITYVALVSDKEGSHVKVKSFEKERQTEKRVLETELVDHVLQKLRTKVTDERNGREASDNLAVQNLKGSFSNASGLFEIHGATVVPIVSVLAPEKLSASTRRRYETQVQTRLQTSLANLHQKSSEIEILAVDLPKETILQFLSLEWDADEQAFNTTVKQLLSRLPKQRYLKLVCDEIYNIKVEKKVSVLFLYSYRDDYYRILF
# intracellular GCN2 (phosphorylation of the GCN2 substrate eIF2α), sequence (Q9P2K8 whole entry): as above
SMILES,Ki (GCN2 kinase; [2]),"IC50 [1, 3]",Ki (GCN2 kinase; [4]),"IC50 [1, 5]",further results
"CC1C(c2cn[nH]c2)NCCN1c1ccnc(-c2cnc3cnc(C(F)(F)F)cn23)n1 (single isomer, unassigned) [IV-357, 3-(4-(2-Methyl-3-(1H-pyrazol-4-yl)piperazin-1-yl)pyrimidin-2-yl)-6-(trifluoromethyl)imidazo[1,2-a]pyrazine]",100 to 1000 nM,> 5 µM,–,–,–
"CC1C(CNS(C)(=O)=O)C(F)(F)CCN1c1cc(-c2cnc3ccc(C(F)F)nn23)ncn1 (single isomer, unassigned) [II-302, N-((1-(6-(6-(Difluoromethyl)imidazo[1,2-b]pyridazin-3-yl)pyrimidin-4-yl)-4,4-difluoro-2-methylpiperidin-3-yl)methyl)methanesulfonamide]",–,–,10 to 1000 nM,0.5 to 5 µM,–
"CC1CN(c2ccnc(-c3cnc4sc(C(F)(F)F)cn34)n2)C(C)C(c2cn[nH]c2)N1 (single isomer, unassigned) [Compound V-11, 5-[4-[2,5-Dimethyl-3-(1H-pyrazol-4-yl)piperazin-1-yl]pyrimidin-2-yl]-2-(trifluoromethyl)imidazo[2,1-b]thiazole]",–,–,–,–,"Ki (GCN2 kinase; compounds of Formula V, 4 nM GCN2 kinase): < 10 nM; IC50 ([1]; compounds of Formula V, U2OS cells, 10 μM borrelidin, 1 h, read-out: GCN2 Biomarker (IC50)): < 0.5 µM"
"CS(=N)(=O)CC1CCCN(c2cc(-c3cnc4ccc(C(F)F)nn34)ncn2)C1 (stereo not drawn) [II-370, ((1-(6-(6-(Difluoromethyl)imidazo[1,2-b]pyridazin-3-yl)pyrimidin-4-yl)piperidin-3-yl)methyl)(imino)(methyl)-λ^6-sulfanone]",–,–,10 to 1000 nM,0.5 to 5 µM,–
"CS(C)(=O)=NC1CCCN(c2cc(-c3cnc4ccc(C(F)(F)F)nn34)ncn2)C1 (stereo not drawn) [II-407, Dimethyl((1-(6-(6-(trifluoromethyl)imidazo[1,2-b]pyridazin-3-yl)pyrimidin-4-yl)piperidin-3-yl)imino)-λ^6-sulfanone]",–,–,10 to 1000 nM,> 5 µM,–
"CC(NS(C)(=O)=O)[C@@H]1CN(c2cc(-c3cnc4ccc(C(F)F)nn34)ncn2)CCO1 (single isomer, unassigned) [II-510]",–,–,10 to 1000 nM,0.5 to 5 µM,–
"CC1(O)CCN(c2cc(-c3cnc4ccc(C(F)F)nn34)ncn2)CC1CNS(C)(=O)=O (stereo not drawn) [II-239, N-((1-(6-(6-(Difluoromethyl)imidazo[1,2-b]pyridazin-3-yl)pyrimidin-4-yl)-4-hydroxy-4-methylpiperidin-3-yl)methyl)methanesulfonamide]",–,–,< 10 nM,0.5 to 5 µM,–
"FC(F)(F)c1cn2c(-c3nccc(N4CCCC(c5cocn5)C4)n3)cnc2cn1 (stereo not drawn) [IV-694, 4-(1-(2-(6-(Trifluoromethyl)imidazo[1,2-a]pyrazin-3-yl)pyrimidin-4-yl)piperidin-3-yl)oxazole]",100 to 1000 nM,> 5 µM,–,–,–
"CS(=O)(=O)NCC1COCCN(c2cc(-c3cnc4ccc(C(F)(F)F)nn34)ccn2)C1 (stereo not drawn) [II-232, N-((4-(4-(6-(Trifluoromethyl)imidazo[1,2-b]pyridazin-3-yl)pyridin-2-yl)-1,4-oxazepan-6-yl)methyl)methanesulfonamide]",–,–,10 to 1000 nM,0.5 to 5 µM,–
"CS(=O)(=O)CC1CCN(c2cc(-c3cnc4ccc(C(F)F)nn34)ncn2)C1 (stereo not drawn) [II-396, 6-(Difluoromethyl)-3-(6-(3-((methylsulfonyl)methyl)pyrrolidin-1-yl)pyrimidin-4-yl)imidazo[1,2-b]pyridazine]",–,–,10 to 1000 nM,0.5 to 5 µM,–
"C[C@@H]1CN(c2cc(-c3cnc4ccc(C(F)F)nn34)ncn2)CC(C(N)=O)O1 (stereo partly drawn) [II-201, (6R)-4-(6-(6-(Difluoromethyl)imidazo[1,2-b]pyridazin-3-yl)pyrimidin-4-yl)-6-methylmorpholine-2-carboxamide]",–,–,10 to 1000 nM,> 5 µM,–
"CC1CCC(CNS(C)(=O)=O)CN1c1cc(-c2cnc3ccc(C(F)F)nn23)ncn1 (stereo not drawn) [II-246, N-((1-(6-(6-(Difluoromethyl)imidazo[1,2-b]pyridazin-3-yl)pyrimidin-4-yl)-6-methylpiperidin-3-yl)methyl)methanesulfonamide]",–,–,10 to 1000 nM,> 5 µM,–
"OC[C@H]1CCCN(c2ccnc(-c3cnc4cnc(C(F)F)cn34)n2)C1 [IV-142, (S)-(1-(2-(6-(Difluoromethyl)imidazo[1,2-a]pyrazin-3-yl)pyrimidin-4-yl)piperidin-3-yl)methanol]",100 to 1000 nM,> 5 µM,–,–,–
"CC1CN(c2ccnc(-c3cnc4cnc(Cl)cn34)n2)CC(c2cn[nH]c2)O1 (single isomer, unassigned) [IV-192, 4-(2-(6-Chloroimidazo[1,2-a]pyrazin-3-yl)pyrimidin-4-yl)-2-methyl-6-(1H-pyrazol-4-yl)morpholine]",< 10 nM,0.5 to 5 µM,–,–,–
"FC(F)(F)c1cn2c(-c3nccc(N4CCCC(c5cc[nH]n5)C4)n3)cnc2cn1 (stereo not drawn) [IV-589, 3-(4-(3-(1H-Pyrazol-3-yl)piperidin-1-yl)pyrimidin-2-yl)-6-(trifluoromethyl)imidazo[1,2-a]pyrazine]",10 to 100 nM,0.5 to 5 µM,–,–,–
"N#Cc1cn2c(-c3nccc(N4CCOC(c5cn[nH]c5)C4)n3)cnc2cn1 (stereo not drawn) [IV-18, 3-(4-(2-(1H-Pyrazol-4-yl)morpholino)pyrimidin-2-yl)imidazo[1,2-a]pyrazine-6-carbonitrile]",< 10 nM,0.5 to 5 µM,–,–,–
"FC(F)(F)c1cn2c(-c3nccc(N4CCCC(c5cncs5)C4)n3)cnc2cn1 (stereo not drawn) [IV-691, 5-(1-(2-(6-(Trifluoromethyl)imidazo[1,2-a]pyrazin-3-yl)pyrimidin-4-yl)piperidin-3-yl)thiazole]",10 to 100 nM,0.5 to 5 µM,–,–,–
"CC1C(c2cn[nH]c2)OCCN1c1nccc(-c2cnc3cnc(C(F)(F)F)cn23)n1 (stereo not drawn) [IV-418, 3-Methyl-2-(1H-pyrazol-4-yl)-4-(4-(6-(trifluoromethyl)imidazo[1,2-a]pyrazin-3-yl)pyrimidin-2-yl)morpholine]",10 to 100 nM,0.5 to 5 µM,–,–,–
"C[S+]([O-])CC1CCCN(c2cc(-c3cnc4ccc(C(F)F)nn34)ccn2)C1 (stereo not drawn) [II-151, 6-(Difluoromethyl)-3-(2-(3-((methylsulfinyl)methyl)piperidin-1-yl)pyridin-4-yl)imidazo[1,2-b]pyridazine]",–,–,10 to 1000 nM,0.5 to 5 µM,–
"CS(C)(=O)=NC1CCCN(c2cc(-c3cnc4ccc(C(F)F)nn34)ncn2)C1C(F)F (stereo not drawn) [II-700, [2-(Difluoromethyl)-1-[6-[6-(difluoromethyl)imidazo[1,2-b]pyridazin-3-yl]pyrimidin-4-yl]-3-piperidyl]imino-dimethyl-λ^6-sulfanone]",–,–,< 10 nM,< 0.5 µM,–
"OCC1CCCN(c2ccnc(-c3cnc4cnc(C(F)F)cn34)n2)C1 (stereo not drawn) [IV-121, (1-(2-(6-(Difluoromethyl)imidazo[1,2-a]pyrazin-3-yl)pyrimidin-4-yl)piperidin-3-yl)methanol]",100 to 1000 nM,> 5 µM,–,–,–
"NS(=O)(=O)NCC1CCCN(c2cc(-c3cnc4ccc(C(F)F)nn34)ncn2)C1 (single isomer, unassigned) [II-277]",–,–,< 10 nM,0.5 to 5 µM,–
"CS(=O)(=O)NC1(C2CCN(c3cc(-c4cnc5ccc(C(F)F)nn45)ncn3)C2)CC1 (stereo not drawn) [II-439, N-(1-(1-(6-(6-(Difluoromethyl)imidazo[1,2-b]pyridazin-3-yl)pyrimidin-4-yl)pyrrolidin-3-yl)cyclopropyl)methanesulfonamide]",–,–,10 to 1000 nM,0.5 to 5 µM,–
"FC(F)c1cn2c(-c3nccc(N4CCC(c5c[nH]cn5)C4)n3)cnc2cn1 (stereo not drawn) [IV-67, 3-(4-(3-(1H-Imidazol-4-yl)pyrrolidin-1-yl)pyrimidin-2-yl)-6-(difluoromethyl)imidazo[1,2-a]pyrazine]",100 to 1000 nM,> 5 µM,–,–,–
